“And” between values parts separate entries of the source, which are not always exact repeats. Equal values may be shown once.

The test deals with C57BL/6 J mice. Kind of test: Open-field test (locomotion and thigmotaxis). In kind it is in vivo, mouse. Further details: Total distance travelled in 50 mins (Figure 6a) / Open-field test, locomotion over time (sheet 6b) / Open-field test, thigmotaxis, whole session (sheet 6c): unit not given here. The conditions noted are these: for Total distance travelled in 50 mins (Figure 6a) / Open-field test, locomotion over time (sheet 6b) / Open-field test, thigmotaxis over time (sheet 6d) / Open-field test, thigmotaxis, whole session (sheet 6c): individual mice. How it is done:
Adult […] C57BL/6 J mice (3-6 months old) were provided by Charles River. Both females and males (15 females and 9 males) were used in this study. Sex was evenly distributed across experimental groups. Sex was not considered in the study design or analysis, as no reports indicate differential expression levels of GPR139 between male and female mice. They were housed with ad libitum food and water, in a temperature and humidity-controlled environment under a standard 12 h light/dark cycle. The experiments were performed in agreement with the European Council Directive (86/609/EEC) and approved by the local Animal Ethics Committee at Karolinska Institute (3218-2022). All efforts were made to minimize suffering and the number of animals used. Mice were treated with either 10% DMSO + 10% solutol HS-15 + 80% saline (vehicle, n = 8), compound 1.5 (n = 8, 30 mg/kg i.p.), or JNJ-63533054 (n = 8, 30 mg/kg i.p.), both of which were dissolved in 10% DMSO + 10% solutol HS-15 + 80% saline. Mice were placed in an open field arena 10 min after the injection and recorded for 50 min. Total distance travelled and the time spent in the periphery arena were measured using an automated video tracking system (EthoVision XT 11.5; Noldus). One-way ANOVA followed by Dunnett’s multiple comparisons test and Two-way ANOVA followed by Tukey’s multiple comparisons test were used. Brain and blood samples were taken immediately after the locomotion test. The brain samples were quickly frozen, and blood was drawn from the cervical vein upon decapitation into EP tubes. The samples were immediately centrifuged for 10 min at 3000 × g at 4 °C, and the plasma was transferred into clean polypropylene tubes. All samples were stored at −80 °C before analysis.

Take `Cc1nocc1-c1nc(CC(=O)NC(C)c2ccccc2)no1` (stereo not shown) [Compound 1.5, CC(C1=CC=CC=C1)NC(CC2=NOC(C3=CON=C3C)=N2)=O]: the “Open-field test, thigmotaxis, whole session (sheet 6c)” value was 98.132 and 97.2307 and 99.696 and 69.7907 and 91.5387 and 88.492 and 96.8507 and 82.616. Further, the “Total distance travelled in 50 mins (Figure 6a)” value (30 mg/kg i.p.) is 3619.7 and 1516.14 and 932.636 and 2008.89 and 11482.8 and 3961.35 and 3158.61 and 1417.56. Also, where the note is “5 mins”, the “Open-field test, locomotion over time (sheet 6b)” value is 1534.71 and 1388.77 and 1295.98 and 638.887 and 1035.03 and 624.833 and 367.922 and 520.924. The “Open-field test, thigmotaxis over time (sheet 6d)” value (5 mins, in % (unit assumed)) is 58.4267 and 77.1733 and 70.76 and 76.5333 and 44.5867 and 92.2133 and 78.64 and 98.2267. Further, under “10 mins”, the “Open-field test, locomotion over time (sheet 6b)” value was 944.829 and 1045.75 and 698.474 and 211.083 and 1038.45 and 297.32 and 169.554 and 251.751. In addition, the “Open-field test, thigmotaxis over time (sheet 6d)” value (10 mins, in % (unit assumed)) is 57.6133 and 89.2933 and 80.9867 and 94.6933 and 45.7733 and 98.64 and 97.4267 and 99.88. In addition, where the note is “15 mins”, the “Open-field test, locomotion over time (sheet 6b)” value was 724.917 and 289.775 and 194.585 and 64.0034 and 579.982 and 38.8587 and 84.0131 and 202.975; the “Open-field test, thigmotaxis over time (sheet 6d)” value was 79.1867 and 87.4267 and 100 (4×) and 67.5067 and 98.8533. Further, under “20 mins”, the “Open-field test, locomotion over time (sheet 6b)” value is 43.478 and 341.627 and 152.166 and 3.91 and 301.879 and 49.2379 and 23.1583 and 69.7204; the “Open-field test, thigmotaxis over time (sheet 6d)” value is 100 (5×) and 93.36 and 86.0667 and 98.92. Further, for the setting “25 mins”, the “Open-field test, locomotion over time (sheet 6b)” value was 1347.85 and 148.793 and 124.524 and 4.2615 and 37.5095 and 24.1112 and 17.1945 and 57.9976; the “Open-field test, thigmotaxis over time (sheet 6d)” value was 75.1067 and 91.4267 and 100 (6×). Further, under “30 mins”, the “Open-field test, locomotion over time (sheet 6b)” value was 1735.43 and 147.426 and 152.999 and 41.6297 and 15.7939 and 39.7283 and 43.7378 and 9.443; the “Open-field test, thigmotaxis over time (sheet 6d)” value was 59.8267 and 99.36 and 97.2933 and 98.9733 and 100 (3×) and 97.7867. Also, under “35 mins”, the “Open-field test, locomotion over time (sheet 6b)” value was 1485.83 and 64.3909 and 126.684 and 26.842 and 6.448 and 42.921 and 11.8566 and 37.4144; the “Open-field test, thigmotaxis over time (sheet 6d)” value is 59.8533 and 100 (6×) and 99.44. The “Open-field test, locomotion over time (sheet 6b)” value (40 mins) was 1609.58 and 127.219 and 108.3 and 183.443 and 63.0073 and 201.855 and 59.5513 and 1.7683. Moreover, under “40 mins, in % (unit assumed)”, the “Open-field test, thigmotaxis over time (sheet 6d)” value was 53.72 and 93.1467 and 46.96 and 98.3067 and 97.52 and 91.5467 and 99.2 and 100. For the setting “45 mins”, the “Open-field test, locomotion over time (sheet 6b)” value was 1163.43 and 158.947 and 183.999 and 73.8724 and 168.393 and 37.8929 and 22.5543 and 382.596; the “Open-field test, thigmotaxis over time (sheet 6d)” value was 64.4933 and 94.68 and 93.2533 and 100 (4×) and 88.1333. Where the note is “50 mins”, the “Open-field test, locomotion over time (sheet 6b)” value was 892.776 and 248.648 and 120.895 and 169.632 and 373.205 and 159.384 and 133.094 and 474.296; the “Open-field test, thigmotaxis over time (sheet 6d)” value is 89.68 and 89.52 and 96.2267 and 100 (3×) and 96.5733 and 99.2533.
Take `CC(NC(=O)CNC(=O)c1cccc(Cl)c1)c1ccccc1` (stereo not shown) [JNJ-63533054, reference compound]: the “Open-field test, thigmotaxis, whole session (sheet 6c)” value is 97.4653 and 94.024 and 95.1893 and 98.6947 and 88.4613 and 85.0307 and 98.8533 and 92.4467. Further, for the setting “30 mg/kg i.p., vs vehicle”, the “thigmotaxis (time in the periphery)” value is given as “spent more time in the periphery compared to the vehicle group” and the “total distance travelled in the open field arena” value was “results similar to those obtained for JNJ-63533054”. The “Total distance travelled in 50 mins (Figure 6a)” value (30 mg/kg i.p.) is 3359.39 and 1792.13 and 2582.49 and 3979.72 and 2080.85 and 9982.78 and 3772.48 and 918.903. Moreover, the “Open-field test, locomotion over time (sheet 6b)” value (5 mins) was 932.272 and 989.458 and 1696.51 and 1348.86 and 505.51 and 1391.08 and 1396.99 and 852.786. In addition, the “Open-field test, thigmotaxis over time (sheet 6d)” value (5 mins, in % (unit assumed)) was 70.24 and 93.24 and 86.6 and 72.9333 and 95.6533 and 59.4533 and 79.16 and 62.2. The “Open-field test, locomotion over time (sheet 6b)” value (10 mins) is 809.521 and 300.737 and 1208.9 and 562.14 and 33.766 and 906.8 and 199.588 and 129.938. Also, the “Open-field test, thigmotaxis over time (sheet 6d)” value (10 mins, in % (unit assumed)) is 97.5867 and 98.7467 and 63.5867 and 94.9733 and 100 and 78.9333 and 98.0533 and 99.9733. Besides, for the setting “15 mins”, the “Open-field test, locomotion over time (sheet 6b)” value is 194.752 and 21.7885 and 924.739 and 354.313 and 27.675 and 233.464 and 23.6513 and 7.655; the “Open-field test, thigmotaxis over time (sheet 6d)” value is 98.8933 and 100 (4×) and 93.1733 and 95.84 and 98.8533. Also, under “20 mins”, the “Open-field test, locomotion over time (sheet 6b)” value is 171.669 and 49.3834 and 612.36 and 167.407 and 0 and 187.813 and 0.8234 and 102.119; the “Open-field test, thigmotaxis over time (sheet 6d)” value was 99.9467 and 100 (4×) and 97.5333 and 99.0133 and 99.7333. In addition, for the setting “25 mins”, the “Open-field test, locomotion over time (sheet 6b)” value was 630.708 and 147.757 and 783.223 and 246.73 and 0.6166 and 0.4386 and 0.4195 and 141.542; the “Open-field test, thigmotaxis over time (sheet 6d)” value is 94.8 and 100 (5×) and 94.6667 and 96.8533. Under “30 mins”, the “Open-field test, locomotion over time (sheet 6b)” value is 4.719 and 265.963 and 938.142 and 27.3973 and 11.6817 and 61.4941 and 0 and 205.37; the “Open-field test, thigmotaxis over time (sheet 6d)” value is 100 (5×) and 97.44 and 85.8667 and 98.56. Also, where the note is “35 mins”, the “Open-field test, locomotion over time (sheet 6b)” value was 3.326 and 8.572 and 1042.9 and 433.751 and 7.486 and 2.001 and 0.4323 and 246.216; the “Open-field test, thigmotaxis over time (sheet 6d)” value was 100 (5×) and 84.7333 and 92.4267 and 94.5867. Also, for the setting “40 mins”, the “Open-field test, locomotion over time (sheet 6b)” value is 521.05 and 1.596 and 845.25 and 8.083 and 7.72 and 4.549 and 0.4103 and 0.9443; the “Open-field test, thigmotaxis over time (sheet 6d)” value is 97.24 and 100 (6×) and 95.16. Moreover, under “45 mins”, the “Open-field test, locomotion over time (sheet 6b)” value was 294.43 and 290.485 and 1172.17 and 477.116 and 34.0014 and 4.204 and 168.331 and 0.6994; the “Open-field test, thigmotaxis over time (sheet 6d)” value was 98.6133 and 97.52 and 87.88 and 86.5333 and 99.8133 and 100 (2×) and 97.44. Further, where the note is “50 mins”, the “Open-field test, locomotion over time (sheet 6b)” value is 417.274 and 5.107 and 758.587 and 146.686 and 290.447 and 567.543 and 1.48 and 895.221; the “Open-field test, thigmotaxis over time (sheet 6d)” value was 94.5733 and 100 (2×) and 95.4133 and 11.7333 and 93.0667 and 88.9333 and 83.48.

Values taken from article PMC12775434, “Ultra-large virtual screening unveils potent agonists of the neuromodulatory orphan receptor GPR139” (Nature Communications, 2025).
